A short description of data set [1]: Toxicity in BALB/c mouse xenografted with mouse CT26 cells assessed as pathological changes in lung at 30 mg/kg, ip QD by hematoxylin and eosin staining based microscopic analysis. Format: organism-based. The note with it: in vivo.
Data set [2] is described as follows: Toxicity in BALB/c mouse xenografted with mouse CT26 cells assessed as pathological changes in kidney at 30 mg/kg, ip QD by hematoxylin and eosin staining based microscopic analysis. Format: organism-based. The note with it: in vivo.
The test system of data set [3] is HCT-116. The experiment in a line: Induction of apoptosis in Wnt-dependent human HCT-116 cells assessed as viable cells at 20 uM incubated for 24 hrs by Annexin V-Alexa Fluor 647/PI staining based flow cytomtery (Rvb=69.5%). Format: functional. As to conditions: read-out: Activity.
A short description of data set [4]: Toxicity in BALB/c mouse xenografted with mouse CT26 cells assessed as body weight loss at 30 mg/kg, ip QD and measured upto 9 days in presence of anti-PD-1 antibody cotreatment at 10 mg/kg,ip BIW. As to conditions: in vivo, 216 h, time < 9 day. Format: organism-based.
Data set [5] in a line: Microsomal stability in human liver microsomes assessed as intrinsic clearance at […] and measured upto 60 mins by LC-MS/MS analysis. Format: ADME, Microsome. As to conditions: read-out: CLH.
Data set [6] can be described thus: Clearance in Sprague-Dawley rat at 21 mg/kg, ip and measured upto 24 hrs by LC-MS analysis. It is filed as ADME, organism-based. As to conditions: in vivo.
For data set [7], the target named is T1, Beta catenin-BCL9 (Mus musculus, UniProt Q02248+Q9D219).
T1 sequence (Q02248 whole entry): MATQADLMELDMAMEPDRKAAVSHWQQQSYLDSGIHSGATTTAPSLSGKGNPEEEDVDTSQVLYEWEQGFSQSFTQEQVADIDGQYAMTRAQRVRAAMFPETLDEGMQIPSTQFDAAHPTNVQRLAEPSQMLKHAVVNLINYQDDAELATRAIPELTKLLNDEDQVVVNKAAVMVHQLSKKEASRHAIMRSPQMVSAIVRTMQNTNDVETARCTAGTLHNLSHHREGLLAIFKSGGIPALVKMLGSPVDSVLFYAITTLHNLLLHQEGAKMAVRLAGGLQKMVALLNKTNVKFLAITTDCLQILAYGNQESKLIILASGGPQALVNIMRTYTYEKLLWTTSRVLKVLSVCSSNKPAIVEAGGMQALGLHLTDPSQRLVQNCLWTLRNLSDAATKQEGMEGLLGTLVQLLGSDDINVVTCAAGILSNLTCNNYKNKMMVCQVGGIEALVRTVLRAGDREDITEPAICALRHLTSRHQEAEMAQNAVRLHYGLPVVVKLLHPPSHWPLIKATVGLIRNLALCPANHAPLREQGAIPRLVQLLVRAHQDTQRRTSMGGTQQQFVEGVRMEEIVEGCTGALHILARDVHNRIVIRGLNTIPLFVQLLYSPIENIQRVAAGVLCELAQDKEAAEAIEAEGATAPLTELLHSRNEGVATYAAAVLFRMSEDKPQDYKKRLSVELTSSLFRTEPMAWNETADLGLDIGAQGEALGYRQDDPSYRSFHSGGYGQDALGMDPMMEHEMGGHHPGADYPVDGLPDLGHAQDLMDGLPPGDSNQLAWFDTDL
T1 sequence (Q9D219 whole entry): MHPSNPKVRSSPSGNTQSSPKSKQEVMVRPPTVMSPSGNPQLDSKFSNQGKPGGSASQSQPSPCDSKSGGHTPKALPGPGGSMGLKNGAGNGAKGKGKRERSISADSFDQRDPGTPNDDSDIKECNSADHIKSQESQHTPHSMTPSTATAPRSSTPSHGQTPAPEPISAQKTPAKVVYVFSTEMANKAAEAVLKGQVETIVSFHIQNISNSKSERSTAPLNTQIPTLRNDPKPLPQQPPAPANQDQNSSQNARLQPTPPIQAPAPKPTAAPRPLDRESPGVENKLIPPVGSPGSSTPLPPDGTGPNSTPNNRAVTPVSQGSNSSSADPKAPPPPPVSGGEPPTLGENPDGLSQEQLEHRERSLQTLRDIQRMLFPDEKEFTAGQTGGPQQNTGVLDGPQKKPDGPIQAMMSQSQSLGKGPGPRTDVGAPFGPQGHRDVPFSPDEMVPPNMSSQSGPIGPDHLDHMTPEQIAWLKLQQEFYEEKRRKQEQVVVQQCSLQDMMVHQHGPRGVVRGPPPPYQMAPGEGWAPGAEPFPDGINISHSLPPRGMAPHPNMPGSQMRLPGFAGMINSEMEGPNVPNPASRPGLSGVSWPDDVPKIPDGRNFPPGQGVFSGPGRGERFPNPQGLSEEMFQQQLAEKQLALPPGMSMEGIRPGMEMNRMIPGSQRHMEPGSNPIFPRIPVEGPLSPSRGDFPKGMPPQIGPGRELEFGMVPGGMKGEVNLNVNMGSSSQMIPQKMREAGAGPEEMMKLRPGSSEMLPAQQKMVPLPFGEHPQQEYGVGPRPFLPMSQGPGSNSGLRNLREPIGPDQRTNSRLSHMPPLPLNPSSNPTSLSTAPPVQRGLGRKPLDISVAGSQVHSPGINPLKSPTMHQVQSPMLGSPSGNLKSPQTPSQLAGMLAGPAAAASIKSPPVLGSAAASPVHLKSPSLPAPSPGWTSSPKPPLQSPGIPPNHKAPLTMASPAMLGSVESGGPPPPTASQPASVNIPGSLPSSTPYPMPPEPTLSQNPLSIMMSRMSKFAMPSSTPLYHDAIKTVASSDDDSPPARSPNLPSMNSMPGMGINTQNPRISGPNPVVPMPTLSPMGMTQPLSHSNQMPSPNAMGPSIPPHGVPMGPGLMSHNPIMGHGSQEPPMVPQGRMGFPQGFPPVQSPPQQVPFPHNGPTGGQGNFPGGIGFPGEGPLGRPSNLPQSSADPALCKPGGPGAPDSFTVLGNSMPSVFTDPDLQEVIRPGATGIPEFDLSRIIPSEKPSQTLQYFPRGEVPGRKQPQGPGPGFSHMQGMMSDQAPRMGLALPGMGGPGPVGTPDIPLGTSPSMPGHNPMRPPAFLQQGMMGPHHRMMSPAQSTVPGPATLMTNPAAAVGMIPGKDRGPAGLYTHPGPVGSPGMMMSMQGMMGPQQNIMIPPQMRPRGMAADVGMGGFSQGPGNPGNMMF
The data set is described as follows: Inhibition of beta-catenin/BCL9 protein-protein interaction in Wnt-dependent BCL9 knockdown mouse CT26 cells assessed as reduction in Axin2 expression level by qRT-PCR assay. Format: cell-based. (Real-time PCR tracks product formation cycle by cycle.)

A short description of data set [8]: Toxicity in BALB/c mouse xenografted with mouse CT26 cells assessed as adverse effect at 30 mg/kg, ip QD and measured upto 9 days. Format: organism-based. The note with it: in vivo, 216 h, time < 9 day.
In data set [9] the test system is HEK293. The experiment in a line: Induction of apoptosis in Wnt-independent human HEK293 cells assessed as late apoptotic cells at 20 uM incubated for 24 hrs by Annexin V-Alexa Fluor 647/PI staining based flow cytomtery (Rvb=10.5%). It is filed as functional.
The test system of data set [10] is CT26. The experiment in a line: Induction of apoptosis in Wnt-dependent mouse CT26 cells assessed as necrotic cells at 10 uM incubated for 24 hrs by Annexin V-Alexa Fluor 647/PI staining based flow cytomtery (Rvb=1.04%). Format: functional.
Data set [11] concerns HEK293. The experiment in a line: Induction of apoptosis in Wnt-independent human HEK293 cells assessed as late apoptotic cells at 10 uM incubated for 24 hrs by Annexin V-Alexa Fluor 647/PI staining based flow cytomtery (Rvb=10.5%). It is filed as functional.

For the compound `CC(C)c1ccc(-c2cccc(S(=O)(=O)N3CCCC(c4cccc(OC(C)(C)C(=O)NS(=O)(=O)c5ccc(C(F)(F)F)cc5)c4)C3)c2)cc1` (stereo unspecified), the Activity entry is given as “Non-Toxic” in data set [1]; “Non-Toxic” in data set [2]; “Non-Toxic” in data set [4]; “Non-Toxic” in data set [8]; 16.6% in [9]; 1.91% in [10]. Also, the Activity in data set [11] came out at 14.9%. For the same compound, in data set [3], the viability at 20 µM amounted to 37.3%. Besides, in [5], the microsomal CLint turned out to be 43.2 µL/min/mg. The CL/F (in general, clearance divided by bioavailability, as obtained after extravascular dosing) in data set [6] is 20.1 mL/min/kg. In addition, in data set [7], the IC50 – broadly, the midpoint of a concentration-inhibition curve – was determined as 51.6 µM.

For the origin of these results see ChEMBL document CHEMBL5316313, “Discovery of Novel 3-Phenylpiperidine Derivatives Targeting the β-Catenin/B-Cell Lymphoma 9 Interaction as a Single Agent and in Combination with the Anti-PD-1 Antibody for the Treatment of Colorectal Cancer” (J Med Chem, 2023).
